In assay [1] the target is T1, M-phase inducer phosphatase 1 (Homo sapiens, UniProt P30304).
T1 sequence (P30304 whole entry): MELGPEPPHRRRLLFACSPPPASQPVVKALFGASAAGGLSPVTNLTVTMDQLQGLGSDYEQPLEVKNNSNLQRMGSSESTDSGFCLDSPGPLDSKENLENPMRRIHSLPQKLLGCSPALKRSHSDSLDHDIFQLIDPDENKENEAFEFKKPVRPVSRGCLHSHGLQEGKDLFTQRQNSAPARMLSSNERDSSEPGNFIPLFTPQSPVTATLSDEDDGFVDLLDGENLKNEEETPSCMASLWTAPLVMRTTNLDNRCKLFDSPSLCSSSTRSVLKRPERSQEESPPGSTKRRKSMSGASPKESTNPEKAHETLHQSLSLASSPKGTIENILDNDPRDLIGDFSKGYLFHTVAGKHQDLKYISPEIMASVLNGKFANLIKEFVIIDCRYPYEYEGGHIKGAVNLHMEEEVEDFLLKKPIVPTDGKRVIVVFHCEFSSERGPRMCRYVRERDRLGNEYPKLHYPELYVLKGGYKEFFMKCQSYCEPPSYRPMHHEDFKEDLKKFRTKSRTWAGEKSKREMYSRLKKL
As to the kind of experiment: Inhibition of CDC25A.

In assay [2] the target is T2, M-phase inducer phosphatase 2 (Homo sapiens, UniProt P30305).
T2 sequence (P30305 whole entry): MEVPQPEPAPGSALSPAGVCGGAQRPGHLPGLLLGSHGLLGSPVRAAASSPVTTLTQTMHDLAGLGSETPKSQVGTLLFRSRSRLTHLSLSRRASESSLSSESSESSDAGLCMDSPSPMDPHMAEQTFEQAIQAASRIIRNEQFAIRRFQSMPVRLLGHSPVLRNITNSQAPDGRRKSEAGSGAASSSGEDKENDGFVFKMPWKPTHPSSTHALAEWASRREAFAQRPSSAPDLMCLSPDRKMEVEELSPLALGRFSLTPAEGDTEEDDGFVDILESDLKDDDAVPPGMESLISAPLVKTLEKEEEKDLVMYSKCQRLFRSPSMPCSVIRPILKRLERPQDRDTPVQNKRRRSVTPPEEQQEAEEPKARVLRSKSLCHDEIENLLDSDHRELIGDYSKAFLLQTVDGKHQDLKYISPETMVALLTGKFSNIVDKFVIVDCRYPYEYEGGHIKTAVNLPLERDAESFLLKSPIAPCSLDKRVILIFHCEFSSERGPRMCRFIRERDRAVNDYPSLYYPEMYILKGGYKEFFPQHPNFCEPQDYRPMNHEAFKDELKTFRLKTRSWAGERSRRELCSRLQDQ
As to the kind of experiment: Inhibition of CDC25B.

The target of assay [3] is T3, M-phase inducer phosphatase 3 (Homo sapiens, UniProt P30307).
T3 sequence (P30307 whole entry): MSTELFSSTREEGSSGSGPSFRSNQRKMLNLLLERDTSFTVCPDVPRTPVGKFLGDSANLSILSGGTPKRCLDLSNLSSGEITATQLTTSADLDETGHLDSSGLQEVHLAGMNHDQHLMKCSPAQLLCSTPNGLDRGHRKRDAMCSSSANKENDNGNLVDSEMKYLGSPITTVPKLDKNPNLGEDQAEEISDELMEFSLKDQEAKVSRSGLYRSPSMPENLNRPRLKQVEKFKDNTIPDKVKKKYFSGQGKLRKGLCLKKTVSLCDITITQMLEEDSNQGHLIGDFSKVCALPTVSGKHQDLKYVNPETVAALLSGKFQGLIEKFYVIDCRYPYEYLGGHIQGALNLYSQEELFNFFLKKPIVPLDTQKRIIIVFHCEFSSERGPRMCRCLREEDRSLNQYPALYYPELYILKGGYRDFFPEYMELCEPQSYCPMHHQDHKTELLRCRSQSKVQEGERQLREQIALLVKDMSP
As to the kind of experiment: Inhibition of CDC25C.

The target in assay [4] is Dual specificity protein phosphatase 3 (Homo sapiens, UniProt P51452). As to the kind of experiment: Inhibition of VHR.
Chain of Dual specificity protein phosphatase 3 (P51452 whole entry): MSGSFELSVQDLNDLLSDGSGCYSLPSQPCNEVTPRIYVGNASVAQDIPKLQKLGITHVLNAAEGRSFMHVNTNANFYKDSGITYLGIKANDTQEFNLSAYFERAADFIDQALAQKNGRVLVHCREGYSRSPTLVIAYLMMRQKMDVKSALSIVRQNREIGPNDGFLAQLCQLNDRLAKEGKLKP
In assay [5] the target is T4, Dual specificity protein phosphatase 1 (Homo sapiens, UniProt P28562).
T4 sequence (P28562 whole entry): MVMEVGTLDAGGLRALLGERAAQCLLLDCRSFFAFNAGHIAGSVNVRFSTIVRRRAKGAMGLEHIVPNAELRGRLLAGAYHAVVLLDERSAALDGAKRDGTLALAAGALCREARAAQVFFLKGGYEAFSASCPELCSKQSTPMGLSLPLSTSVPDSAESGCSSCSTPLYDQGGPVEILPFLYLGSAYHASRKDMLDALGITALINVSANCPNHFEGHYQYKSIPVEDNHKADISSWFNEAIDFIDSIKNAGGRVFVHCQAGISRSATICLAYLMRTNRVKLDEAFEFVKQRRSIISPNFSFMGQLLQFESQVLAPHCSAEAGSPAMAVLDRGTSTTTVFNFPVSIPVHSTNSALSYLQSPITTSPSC
The experiment in a line: Inhibition of MKP1.

Assay [6] concerns the target T5, Dual specificity protein phosphatase 6 (Homo sapiens, UniProt Q16828).
T5 sequence (Q16828 whole entry): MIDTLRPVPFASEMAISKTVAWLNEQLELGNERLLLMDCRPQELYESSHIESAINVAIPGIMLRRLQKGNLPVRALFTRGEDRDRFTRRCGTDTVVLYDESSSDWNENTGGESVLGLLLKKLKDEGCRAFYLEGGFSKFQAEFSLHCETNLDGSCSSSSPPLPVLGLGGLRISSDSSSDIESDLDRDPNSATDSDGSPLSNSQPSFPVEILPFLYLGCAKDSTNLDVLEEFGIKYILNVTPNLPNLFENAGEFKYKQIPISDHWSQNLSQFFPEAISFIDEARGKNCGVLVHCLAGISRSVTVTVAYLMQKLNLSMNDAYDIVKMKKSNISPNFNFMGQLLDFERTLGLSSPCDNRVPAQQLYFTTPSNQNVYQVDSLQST
As to the kind of experiment: Inhibition of MKP3.

Assay [7] has as its target T6, Tyrosine-protein phosphatase non-receptor type 1 (Homo sapiens, UniProt P18031).
T6 sequence (P18031 whole entry): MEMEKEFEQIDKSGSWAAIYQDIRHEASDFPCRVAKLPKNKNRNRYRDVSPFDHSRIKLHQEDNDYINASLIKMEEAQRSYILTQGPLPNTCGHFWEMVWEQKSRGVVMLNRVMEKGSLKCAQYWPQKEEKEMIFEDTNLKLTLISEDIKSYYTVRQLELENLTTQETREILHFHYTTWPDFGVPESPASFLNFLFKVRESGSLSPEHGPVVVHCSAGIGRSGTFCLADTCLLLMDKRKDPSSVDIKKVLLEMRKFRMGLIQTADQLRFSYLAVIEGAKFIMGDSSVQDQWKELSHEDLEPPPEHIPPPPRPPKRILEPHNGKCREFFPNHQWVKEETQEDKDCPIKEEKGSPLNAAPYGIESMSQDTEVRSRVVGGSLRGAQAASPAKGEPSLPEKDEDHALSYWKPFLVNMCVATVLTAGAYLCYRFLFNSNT
As to the kind of experiment: Inhibition of PTP1B.

The test system of a further assay is HL-60. As to the kind of experiment: cells. As to conditions: Homo sapiens, HL-60, 48 h.

Some results are limits rather than exact numbers.

One may read the IC50 as the concentration that gives 50% inhibition. The low end stands for higher potency, the high end for lower potency.

Regarding `CCCCCCCCCCCCCCCC(NCc1ccc(N(C)C)cc1)=C1C(=O)OC(CO)C1=O` (mixture of isomers), the IC50 in assay [1] was 8.67 µM; in assay [2] it was 6.23 µM; in assay [3], > 100 µM; in assay [4] it was 12 µM; in assay [5], > 100 µM; in assay [6] it was > 100 µM. Also, the figures for the IC50 (in assay [7]; in the assay on HL-60) were > 100 µM and 10.9 µM, respectively.
Consider `CCCCCCCCCCCCCCCC(NCc1ccccc1F)=C1C(=O)OC(CO)C1=O` (mixture of isomers), for which the IC50 in assay [1] is 12.6 µM; in assay [3] it was 47.1 µM; in assay [4], 8.93 µM; in assay [5] it was > 100 µM; in assay [6], > 100 µM; in assay [7] it was > 100 µM.
In the case of `CCCCCCCCCCCCCCCC(NCc1cccc(OC)c1)=C1C(=O)OC(CO)C1=O` (mixture of isomers), the IC50 in assay [1] is 10.2 µM; in assay [2], 8.31 µM; in assay [3] it was > 100 µM; in assay [4], 5.53 µM; in assay [5], > 100 µM; in assay [6] it was > 100 µM. The IC50 in assay [7] was > 100 µM.
For the compound `CCCCCCCCCCCCCCCC(NCc1ccc(C)cc1)=C1C(=O)OC(CO)C1=O` (mixture of isomers), the IC50 in assay [1] is 7.35 µM; in assay [2], 3.33 µM; in assay [3] it was 56.7 µM; in assay [4] it was 2.68 µM; in assay [5], > 100 µM; in assay [6], > 100 µM. The IC50 is > 100 µM in assay [7] and 19.1 µM in the assay on HL-60.
For `CCCCCCCCCCCCCCCC(NCc1ccc(Cl)cc1)=C1C(=O)OC(CO)C1=O` (mixture of isomers), the IC50 was 6.25 µM in assay [1]; 5.52 µM in assay [2]; > 100 µM in assay [3]; 3.63 µM in assay [4]; > 100 µM in assay [5]; > 100 µM in assay [6]. In addition, the IC50 in assay [7] is > 100 µM.
Consider `CCCCCCCCCCCCCCCC(NCc1ccc(OC)cc1)=C1C(=O)OC(CO)C1=O` (mixture of isomers), for which the half-inhibitory concentration (IC50) in assay [1] is 11.7 µM; in assay [2], 23.8 µM; in assay [3], > 100 µM; in assay [4] it was 6.77 µM; in assay [5] it was > 100 µM; in assay [6], > 100 µM. For the same compound, the IC50 in assay [7] is > 100 µM.
Take `CCCCCCCCCCCCCCCC(NCc1cccc(N(C)C)c1)=C1C(=O)OC(CO)C1=O` (mixture of isomers): the IC50 is 11.4 µM in assay [1]; 6.55 µM in assay [2]; > 100 µM in assay [3]; 5.13 µM in assay [4]; > 100 µM in assay [5]; > 100 µM in assay [6]. In assay [7], the IC50 is > 100 µM.
`CCCCCCCCCCCCCCCC(NCc1ccc(F)cc1)=C1C(=O)OC(CO)C1=O` (mixture of isomers): the IC50 in assay [1] is 10.7 µM; in assay [2] it was 13.1 µM; in assay [3], > 100 µM; in assay [5], > 100 µM; in assay [6], > 100 µM; in assay [7] it was > 100 µM.
As to `CCCCCCCCCCCCCCCC(NCc1ccc(O)cc1)=C1C(=O)OC(CO)C1=O` (mixture of isomers), the IC50 in assay [1] is 6.86 µM; in assay [2], 4.23 µM; in assay [3], 44.1 µM; in assay [4], 9.93 µM; in assay [5] it was > 100 µM; in assay [6] it was > 100 µM. This compound had an IC50 in assay [7] of 68.1 µM.
With `CCCCCCCCCCCCCCCC(NCc1cccc(O)c1)=C1C(=O)OC(CO)C1=O` (mixture of isomers), the IC50 in assay [1] is 15.4 µM; in assay [2] it was 3.15 µM; in assay [3] it was > 100 µM; in assay [4], 11.1 µM; in assay [5] it was > 100 µM; in assay [6] it was > 100 µM. In assay [7], the IC50 is > 100 µM.
Regarding `CCCCCCCCCCCCCCCC(NCc1cccc(F)c1)=C1C(=O)OC(CO)C1=O` (mixture of isomers), the IC50 in assay [1] was 6.22 µM; in assay [2] it was 5.13 µM; in assay [3], 78.2 µM; in assay [4], 4.69 µM; in assay [5], > 100 µM; in assay [6], > 100 µM. Further, the IC50 in assay [7] is 83.7 µM.
Consider `CCCCCCCCCCCCCCCC(NCc1ccccc1C)=C1C(=O)OC(CO)C1=O` (mixture of isomers), for which the IC50 in assay [1] was 12.7 µM; in assay [2], 8.61 µM; in assay [3] it was > 100 µM; in assay [4] it was 8.99 µM; in assay [5], > 100 µM; in assay [6], > 100 µM. Further, in assay [7], the IC50 is > 100 µM.
As to `CCCCCCCCCCCCCCCC(NCc1ccccc1Cl)=C1C(=O)OC(CO)C1=O` (mixture of isomers), the IC50 is 12.3 µM in assay [1]; 13.5 µM in assay [2]; > 100 µM in assay [3]; 10.2 µM in assay [4]; > 100 µM in assay [5]; > 100 µM in assay [6]. The IC50 in assay [7] was > 100 µM.
With `CCCCCCCCCCCCCCCC(NCc1ccccc1OC)=C1C(=O)OC(CO)C1=O` (mixture of isomers), the IC50 in assay [1] is 19 µM; in assay [2], 12.1 µM; in assay [3] it was > 100 µM; in assay [4] it was 6.6 µM; in assay [5] it was > 100 µM; in assay [6], > 100 µM. Also, the IC50 in assay [7] was > 100 µM.
For the compound `CCCCCCCCCCCCCCCC(NCc1ccccc1N(C)C)=C1C(=O)OC(CO)C1=O` (mixture of isomers), the IC50 in assay [1] was 8.5 µM; in assay [2] it was 5.75 µM; in assay [3] it was > 100 µM; in assay [4] it was 5.19 µM; in assay [5] it was > 100 µM; in assay [6], > 100 µM. Besides, the IC50 in assay [7] was > 100 µM.

For the origin of these results see ChEMBL document CHEMBL2062477, “Dual-Specificity Phosphatase CDC25A/B Inhibitor Identified from a Focused Library with Nonelectrophilic Core Structure” (ACS Med Chem Lett, 2012).
